Columns and labels:
L-type calcium channel = L-type calcium channel activity well-plate assay (IMR-32 cells, Ca-4 dye, FlexStation); format: cell-based, human
Description: Cell Culture: IMR-32 (human neuroblastoma) cells were obtained from The American Type Culture Collection. The cells were maintained in MEM supplemented with 10% fetal bovine serum, 2 mM of L-glutamine, 100 IU/ml of penicillin, 50 μg/ml of streptomycin, 1% of sodium pyruvate, 1% of sodium bicarbonate and 1% of non-essential amino acid. […] Culture medium was changed every two days and cells were recultivated when they reached 70-80% confluent.
Assay: IMR-32 cells were seeded on a Microtest 96-well Assay Plate (BD FALCON™) at a density of 200,000 cells/well in 200 μl culture medium for overnight. The culture medium was removed, and replaced by 120 μl Ca-4 dye (MDS Analytical Technologies, Sunnyvale, Calif.) in HBSS (1× Hank's Balanced Salt solution plus 20 mM HEPES, pH 7.4) containing 2 mM probenecid. Cells were then incubated for 1 hour at 37° in incubator. Testing compounds were diluted from 5 μM-50 μM in HBSS, and 40 μl were added in cells before assay. […] The inhibition of L-type calcium channel activity by compounds was then calculated.

hERG potassium channel = hERG potassium channel (Homo sapiens, UniProt Q12809); assay: hERG screening assay (PatchXpress patch clamp, CHO cells)
Sequence of hERG potassium channel (Q12809 whole entry): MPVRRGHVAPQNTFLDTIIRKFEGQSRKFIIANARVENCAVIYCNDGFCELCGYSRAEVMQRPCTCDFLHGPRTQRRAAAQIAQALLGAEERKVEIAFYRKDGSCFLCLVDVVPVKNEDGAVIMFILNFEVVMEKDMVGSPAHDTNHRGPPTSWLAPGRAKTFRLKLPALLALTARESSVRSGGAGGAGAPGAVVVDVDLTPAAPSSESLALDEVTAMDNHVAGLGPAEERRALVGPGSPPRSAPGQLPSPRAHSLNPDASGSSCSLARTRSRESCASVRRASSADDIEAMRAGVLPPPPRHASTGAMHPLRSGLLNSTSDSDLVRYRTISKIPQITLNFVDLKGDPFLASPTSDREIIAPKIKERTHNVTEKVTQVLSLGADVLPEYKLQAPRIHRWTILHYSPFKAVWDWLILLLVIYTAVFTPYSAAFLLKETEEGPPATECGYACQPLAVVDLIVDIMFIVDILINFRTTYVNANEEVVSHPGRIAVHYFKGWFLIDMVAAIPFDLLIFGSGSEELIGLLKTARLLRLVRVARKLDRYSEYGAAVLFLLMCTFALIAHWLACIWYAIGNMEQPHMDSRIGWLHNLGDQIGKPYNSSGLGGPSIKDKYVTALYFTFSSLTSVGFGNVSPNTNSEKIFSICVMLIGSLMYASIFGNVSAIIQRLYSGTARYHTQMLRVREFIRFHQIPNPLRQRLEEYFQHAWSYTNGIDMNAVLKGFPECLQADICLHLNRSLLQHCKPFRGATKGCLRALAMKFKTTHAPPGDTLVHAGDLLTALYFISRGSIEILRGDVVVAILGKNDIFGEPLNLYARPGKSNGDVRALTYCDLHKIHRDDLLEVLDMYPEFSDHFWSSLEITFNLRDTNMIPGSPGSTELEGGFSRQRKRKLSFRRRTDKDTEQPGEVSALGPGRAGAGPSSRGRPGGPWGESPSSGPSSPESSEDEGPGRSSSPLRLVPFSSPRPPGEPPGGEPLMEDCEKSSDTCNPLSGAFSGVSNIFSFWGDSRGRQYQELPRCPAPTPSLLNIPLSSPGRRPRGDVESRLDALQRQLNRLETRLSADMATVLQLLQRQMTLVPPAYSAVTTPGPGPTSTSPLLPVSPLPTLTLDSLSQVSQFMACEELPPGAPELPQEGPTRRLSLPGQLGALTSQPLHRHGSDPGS
Description: Compounds were screened to test their activity in blocking the hERG potassium channel. The hERG channel is heterologously expressed in a CHO (Chinese Hamster Ovary) cell line. Cells are maintained with standard tissue culture procedures and stable channel expression is maintained with 500 μg/ml G418 in the culture medium. Cells are harvested for testing on the PatchXpress automated patch clamp with Acctumax (Innovative Cell Technologies, San Diego, Calif.) to isolate single cells.
The following solutions are used for electrophysiological recordings. The external solution contains: 2 mM CaCl2; 2 mM MgCl2; 4 mM KCl; 150 mM NaCl; 10 mM Glucose; 10 mM HEPES (pH 7.4 with 1M NaOH, osmolarity).
hERG channels are activated when the voltage is stepped to +20 mV from the −80 mV holding potential (see FIG. 3). During a 5 second step at +20 mV, the channels activate and then largely inactivate, so the currents are relatively small. Upon returning to −50 mV from +20 mV, hERG currents transiently become much larger as inactivation is rapidly removed and then the channel closes. The first step to −50 mV for 300 ms is used as a baseline for measuring the peak amplitude during the step to −50 mV after channel activation. The peak current at −50 mV is measured both under control conditions and after addition of compound.
All compounds are prepared as 10 mM DMSO stocks in glass vials. Stock solutions are mixed by vigorous vortexing and sonication for about 2 minutes at room temperature. For testing, compounds are diluted in glass vials using an intermediate dilution step in pure DMSO and then further diluted to working concentrations in external solution. Dilutions are prepared no longer than 20 minutes before use.
After achieving the whole-cell configuration, cells are monitored for 90 seconds to assess stability and washed with external solution for 66 seconds. The voltage protocol described above is then applied to the cells every 12 seconds and throughout the whole procedure. Only cells with stable recording parameters and meeting specified health criteria are allowed to enter the compound addition procedure.
External solution containing 0.1% DMSO (vehicle) is applied to the cells first to establish the control peak current amplitude. After allowing the current to stabilize for 3 to 5 minutes, 1 μM and then 10 μM test compounds are applied. Each compound concentration is added 4 times and cells are kept in test solution until the effect of the compound reaches steady state or for a maximum of 12 minutes. […] Washout in the external solution compartment is performed until the recovery of the current reaches steady state. Data are analyzed using DataXpress, Clampfit (Molecular Devices, Inc., Sunnyvale) and Origin 7 (Originlab Corp.)

SMILES	CaL Plate Assay % blk (1 μM test cmpd) (L-type calcium channel) [%]	CaL Plate Assay % blk (10 μM test cmpd) (L-type calcium channel) [%]	hERG Patch Clamp hERG % blk (1 μM test cmpd) (hERG potassium channel) [%]	hERG Patch Clamp hERG % blk (10 μM test cmpd) (hERG potassium channel) [%]
CC1=C(C(=O)OC(C)C)C(c2ccc3ccccc3c2)C2=C(CCCC2=O)N1 (stereo not drawn) [PT-157, isopropyl 2-methyl-4-(naphthalen-2-yl)-5-oxo-1,4,5,6,7,8-hexahydroquinoline-3-carboxylate]	3	43	–	–
N#CC1=C(N)OC2=C(C(=O)CC(c3ccccc3)C2)C1c1ccsc1 (stereo not drawn) [PT-102, 2-amino-5-oxo-7-phenyl-4-(thiophen-3-yl)-5,6,7,8-tetrahydro-4H-chromene-3-carbonitrile]	6	51	–	–
CCCC1=C(C(=O)OCC)C(c2ccsc2)C2=C(CC(c3ccco3)CC2=O)N1 (stereo not drawn) [PT-150, ethyl 7-(furan-2-yl)-5-oxo-2-propyl-4-(thiophen-3-yl)-1,4,5,6,7,8-hexahydroquinoline-3-carboxylate]	4	71	–	–
CCOC(=O)C1=C(C)NC(C)=C(C(=O)OCC)C1c1ccc(CC)o1 [PT-121, diethyl 4-(5-ethylfuran-2-yl)-2,6-dimethyl-1,4-dihydropyridine-3,5-dicarboxylate]	35	72	–	–
CCOC(=O)C1=C(C)NC(C)=C(C(=O)OCC)C1c1csc2ccccc12 [PT-115, diethyl 4-(benzo[b]thiophen-3-yl)-2,6-dimethyl-1,4-dihydropyridine-3,5-dicarboxylate]	52	65	–	–
CC1=C(C(=O)OCc2ccccc2)C(c2cc3ccccc3s2)n2nnnc2N1 (stereo not drawn) [PT-043, benzyl 7-(benzo[b]thiophen-2-yl)-5-methyl-4,7-dihydrotetrazolo[1,5-a]pyrimidine-6-carboxylate]	23	60	–	–
CCOC(=O)C1=C(C)NC2=C(C(=O)CCC2)C1c1ccc(C)c2ccccc12 (stereo not drawn) [PT-135, ethyl 2-methyl-4-(4-methylnaphthalen-1-yl)-5-oxo-1,4,5,6,7,8-hexahydroquinoline-3-carboxylate]	24	62	–	–
CC1=C(C(=O)OCc2ccccc2)C(c2c(Br)sc3ccccc23)n2nnnc2N1 (stereo not drawn) [PT-386, benzyl 7-(2-bromobenzo[b]thiophen-3-yl)-5-methyl-4,7-dihydrotetrazolo[1,5-a]pyrimidine-6-carboxylate]	–	–	10	16.5
CCOC(=O)C1=C(C)Nc2nnnn2C1c1ccccc1-c1cccc(-c2nnn[nH]2)c1 (stereo not drawn) [PT-493, ethyl 7-(3′-(1H-tetrazol-5-yl)biphenyl-2-yl)-5-methyl-4,7-dihydrotetrazolo[1,5-a]pyrimidine-6-carboxylate]	–	–	10	10
CC1=C(C(=O)OCc2ccccc2)C(c2ccc(N(C)C)c3ccccc23)n2nnnc2N1 (stereo not drawn) [PT-032, benzyl 7-(4-(dimethylamino)naphthalen-1-yl)-5-methyl-4,7-dihydrotetrazolo[1,5-a]pyrimidine-6-carboxylate]	–	–	19	50.5
CCOC(=O)C1=C(C)Nc2nnnn2C1c1csc2ccccc12 (stereo not drawn) [PT-017, ethyl 7-(benzo[b]thiophen-3-yl)-5-methyl-4,7-dihydrotetrazolo[1,5-a]pyrimidine-6-carboxylate]	–	–	10	23.5
CC1=C(C(=O)OCc2ccccc2)C(c2nccs2)n2nnnc2N1 (stereo not drawn) [PT-364, benzyl 5-methyl-7-(thiazol-2-yl)-4,7-dihydrotetrazolo[1,5-a]pyrimidine-6-carboxylate]	–	–	10	17.5
CC1=C(C(=O)OCc2ccccc2)C(c2c(-c3ccc(C(=O)O)cc3)sc3ccccc23)n2nnnc2N1 (stereo not drawn) [PT-294, 4-(3-(6-(benzyloxycarbonyl)-5-methyl-4,7-dihydrotetrazolo[1,5-a]pyrimidin-7-yl)benzo[b]thiophen-2-yl)benzoic acid]	–	–	12.5	15.5
CCOC(=O)C1=C(C)Nc2nnnn2C1c1cccc(Oc2ccccc2)c1 (stereo not drawn) [PT-464, ethyl 5-methyl-7-(3-phenoxyphenyl)-4,7-dihydrotetrazolo[1,5-a]pyrimidine-6-carboxylate]	–	–	11	55
COc1cc(Cl)ccc1COC(=O)C1=C(C)Nc2nnnn2C1c1c(Cl)cccc1Cl (stereo not drawn) [PT-306, 4-chloro-2-methoxybenzyl 7-(2,6-dichlorophenyl)-5-methyl-4,7-dihydrotetrazolo[1,5-a]pyrimidine-6-carboxylate]	–	–	10	48.5
COc1cc(Cl)ccc1COC(=O)C1=C(C)Nc2nnnn2C1c1c(C)cccc1C (stereo not drawn) [PT-307, 4-chloro-2-methoxybenzyl 7-(2,6-dimethylphenyl)-5-methyl-4,7-dihydrotetrazolo[1,5-a]pyrimidine-6-carboxylate]	–	–	10	62.5
CC1=C(C(=O)OCc2ccccc2)C(c2occc2-c2ccc(F)cc2)n2nnnc2N1 (stereo not drawn) [PT-396, benzyl 7-(3-(4-fluorophenyl)furan-2-yl)-5-methyl-4,7-dihydrotetrazolo[1,5-a]pyrimidine-6-carboxylate]	–	–	10	32
CC1=C(C(=O)OCc2ccccc2)C(c2ccccc2-c2ccc(C(=O)O)cc2)n2nnnc2N1 (stereo not drawn) [PT-254, 2′-(6-(benzyloxycarbonyl)-5-methyl-4,7-dihydrotetrazolo[1,5-a]pyrimidin-7-yl)biphenyl-4-carboxylic acid]	–	–	15	20
CCOC(=O)C1=C(C)Nc2nnnn2C1c1ccccc1-n1cccn1.Cl (stereo not drawn) [PT-477, ethyl 7-(2-(1H-pyrazol-1-yl)phenyl)-5-methyl-4,7-dihydrotetrazolo[1,5-a]pyrimidine-6-carboxylate hydrochloride]	–	–	12	44
CC1=C(C(=O)OCc2ccccc2)C(c2nccs2)c2cn[nH]c2N1 (stereo not drawn) [PT-369, benzyl 6-methyl-4-(thiazol-2-yl)-4,7-dihydro-1H-pyrazolo[3,4-b]pyridine-5-carboxylate]	–	–	10	25
CCOC(=O)C1=C(C)Nc2nnnn2C1c1cc2ccccc2o1 (stereo not drawn) [PT-019, ethyl 7-(benzofuran-2-yl)-5-methyl-4,7-dihydrotetrazolo[1,5-a]pyrimidine-6-carboxylate]	–	–	10	26

— patent US20090181986A1, “SUBSTITUTED HETEROCYCLIC COMPOUNDS” (priority 2007, published 2009)
